These results are taken from US9381260B2, “Hypoxia inducible factor-1 pathway inhibitors and uses as anticancer and imaging agents” (EMORY UNIVERSITY, priority 2011, dated 2016).

Series [1] can be described thus: log P7.4 by shake flask or HPLC method (OECD guidelines). Format: physicochemical. To be noted: pH 7.4. How it is done: Experimental determinations of log P7.4, aqueous solubility, and metabolic stability of a selected number of the heteroarylsulfonamides were performed to further characterize the compounds (Table 2 log P7.4 was measured by either the shake flask method (6a, 6g) or the HPLC method (1, 6b-6f, 6h-6l) according to OECD guidelines. Most compounds followed the trends predicted by in silico calculations, and the measured values were smaller than the predicted values by 1.0-1.5. When a methoxy group or hydroxyl group is placed at the C-8 position of the chromene ring instead of a hydrogen, as in 6g, 6h, and 6l, the log P7.4 value decreased by more than 2 from the predicted values to result in 1.2-1.3. The presence of a 2-methylpropan-2-yl group in region 2 conferred high log P7.4 values, and heteroarylsulfonyl groups in region 1 also affected log P7.4 values, as shown for 6c, 6i, 6j, and 6k.

Series [2] relates to HIF-1 transcriptional activity. In words: HIF-inducible luciferase reporter assay in LN229-V6R cells under hypoxia. Format: cell-based, human. How it is done:
(§1) Results are plotted as percent of luciferase activity found in extracts of untreated cells used as controls. (A) Luciferase activity in extracts of LN229-V6R cells, which contain a HIF-inducible luciferase reporter gene. The cells were grown under hypoxia to activate HIF. (B) Luciferase activity in extracts of LN229-Lux cells, which contain a constitutively expressed luciferase reporter gene. Results shown are from cells grown under normoxia; similar results were obtained under hypoxia.
(§2) The effects of the 12 heteroarylsulfonamides on HIF transcriptional activity under hypoxia were measured by determining the luciferase activity present in LN229-V6R cells, which contain a stably integrated hypoxia/HIF inducible luciferase reporter gene. As a control for the absence of inhibition on luciferase enzyme per se, we also tested 1 and five heteroarylsulfonamides in LN229-Lux cells that contain a constitutive luciferase reporter gene driven by a retroviral LTR promoter. An Hsp90 inhibitor, 17-DMAG, and 1 were used as positive controls. […] The heteroarylsulfonamides decreased HIF-1 activity in a dose-dependent fashion with IC50 values below (6a, 6b, 6d-6f, 6h, 6i, 6l) or close to 5 μM (6c, 6g, 6j, 6k) (FIG. 2).
(A reporter such as luciferase makes a cellular process visible.)

The subject of series [3] is LN229-Lux cells (constitutive luciferase reporter gene). The experiment in a line: Constitutive luciferase reporter control assay in LN229-Lux cells. The settings on record: control for luciferase inhibition. In kind it is cell-based, human. How it is done: as §1, §2
Series [4] relates to HIF-1α. In words: HIF-1α protein levels by Western blot in LN229-V6R cells under hypoxia. Format: cell-based, human. To be noted: 24 h; for effect on HIF-1α protein levels: 3-100 μM. On the procedure:
HIF-1 is a heterodimer of HIF-1α and HIF-1β subunits, which then associates with p300 or CBP cofactors to form an active transcriptional complex. […] To determine whether the heteroarylsulfonamides retain this property, we determined the levels of HIF-1α protein under hypoxia in LN229-V6R cells. […] We investigated if the levels of HIF-1α protein would correlate with transcriptional inhibition of the HRE reporter by the compounds. LN229-V6R cells were treated with the compounds at concentrations of 3, 6, 12, 25, 50, and 100 μM under hypoxia for 24 h, and then HIF-1α protein levels in the cell extracts were examined by Western blotting. […] 6g and 61 decreased HIF-1a levels in a dose-dependent fashion starting from 12 and 25 μM, respectively (FIG. 3). […] The reduction in HIF-1α levels afforded by all three compounds at 100 μM may reflect nonspecific cytotoxicity.
For orientation: Immunoblotting shows a protein as a band on a membrane.

Series [5] in a line: Aqueous solubility by HPLC-UV on filtered saturated suspensions. To be noted: for aqueous solubility (n = 3) / solubility: HPLC-UV, saturated aqueous suspension, PTFE filter 0.2 μm; for solubility: water, thermodynamic from solid, read-out: aqueous solubility (n = 3); for aqueous solubility relative to 1: fold more soluble than compound 1. In kind it is physicochemical. An excerpt: Aqueous solubilities of 1, 6a, 6d, and 6g were quantified by HPLC coupled with a UV detector on saturated aqueous suspensions after filtration with a polytetrafluoroethylene (PTFE) filter (pore size 0.2 μm). 6a and 6d were chosen due to their strong activity in the HRE-reporter assay, and 6g was picked to evaluate the influence of the methoxy group attached to the C-8 position of the chromene ring. Aqueous solubilities of 6a, 6d, and 6g are, respectively, 100, 20, and 9000 times better than that of 1, which are consistent with the log Sw predictions for 6a and 6d. The substitution of hydrogen with a methoxy group at the C-8 position of the chromene ring increased the aqueous solubility by 90 times (compare 6a and 6g).

The nature of series [6]: Aqueous solubility by laser nephelometry at pH 3.0, 5.0, 7.4. In kind it is physicochemical. The settings on record: pH 5.0 and pH 3.0 versus pH 7.4.
Series [7] in a line: Metabolic stability in homogenates of mouse liver. In kind it is in vitro ADME. To be noted: homogenates of mouse liver in PBS 1:2 (w/v), ex vivo; for half-life: mouse, mouse liver homogenate, read-out: half-life (hepatic metabolic stability) (converted). How it is done:
Metabolic stabilities of 1, 6a, 6d, 6g, and 6l were measured in mouse plasma and homogenates of mouse liver in PBS [1:2 (w/v)].

For series [8], the system named is LN229 human glioblastoma cells. In words: Clonogenicity assay LN229. In kind it is cell-based. To be noted: LN-229, 336 h, 14 days. An excerpt: (§3) To determine whether 6a, 6g, and 6l altered tumor cell growth in culture, we performed sulforhodamine B (SRB) assays in LN229-V6R glioma cells in 3 days, and to further examine the cell growth inhibitory activity of 6a, 6g, and 61 in an independent biological assay, we performed clonogenicity assays in LN229 human glioblastoma cells and HFF-1 immortalized human fibroblasts, over a period of 14 days.

For series [9], the system named is HFF-1 immortalized human fibroblasts. The experiment in a line: Clonogenicity assay HFF-1. Format: cell-based. To be noted: HFF-1, 336 h, 14 days.
From the text: as §3

In brackets after ≈: the same amount, converted by molar mass.

As to `CC(C)CN(Cc1ccc2c(c1)C=CC(C)(C)O2)S(=O)(=O)c1nccn1C` [Compound 6j, N-[(2,2-Dimethyl-2H-chromen-6-yl)methyl]-N-(2-methylpropyl)-1-methyl-1H-imidazole-2-sulfonamide], the “log P7.4” value in series [1] is 3.1.
The solubility is the dissolved amount per volume that the medium holds. By half-life is commonly meant how long it takes for the measured level to halve. On to `COc1ccc(S(=O)(=O)N(Cc2ccc3c(c2)C=CC(C)(C)O3)c2ccccc2)cc1OC` [Compound 1, 3,4-Dimethoxy-N-[(2,2-dimethyl-2H-chromene-6-yl)methyl]-N-phenylbenzenesulfonamide, reference compound], for which the activity at 2.5 µM in series [2] (Homo sapiens, 2.5 μM, LN229-V6R cells, read-out: remaining HIF-1 activity at 2.5 μM, % of control) is 18%. In addition, the “effect on luciferase activity in LN229-Lux cells” value in series [3] is “reduced luciferase activity only in LN229-V6R cells”. Besides, the “effect on HIF-1α protein levels” value in series [4] is on record as “does not antagonize hypoxia-induced HIF-1α expression”. Besides, the “log P7.4” value in [1] was found to be 3.7. Further, in series [5], the “aqueous solubility (n = 3)” value was found to be 0.009 µM (≈ 0.00419 µg/mL) and the solubility turned out to be 0.003 µg/mL (≈ 0.00644 µM). In addition, in series [6], the “effect of low pH on aqueous solubility” value is recorded as “pH did not affect aqueous solubility”. Moreover, the half-life in series [7] is 660 min.
Turning to `CC(C)CN(Cc1ccc2c(c1)C=CC(C)(C)O2)S(=O)(=O)c1nccs1` [Compound 6k, N-[(2,2-Dimethyl-2H-chromen-6-yl)methyl]-N-(2-methylpropyl)-1,3-thiazole-2-sulfonamide], the “log P7.4” value in [1] is 4.4.
For the compound `CC1(C)C=Cc2cc(CN(C3CCC3)S(=O)(=O)c3ccccn3)ccc2O1` [Compound 6e, N-(Cyclobutyl)-N-[(2,2-dimethyl-2H-chromen-6-yl)methyl]pyridine-2-sulfonamide], in series [1], the “log P7.4” value amounted to 3.0.
What is called IC50 is the concentration that gives 50% inhibition. Higher therefore signals lower potency. With `CC(C)N(Cc1ccc2c(c1)C=CC(C)(C)O2)S(=O)(=O)c1ccccn1` [Compound 6a, N-[(2,2-Dimethyl-2H-chromen-6-yl)methyl]-N-(propan-2-yl)pyridine-2-sulfonamide], the “inhibition of HIF-1 transcriptional activity (HRE-reporter) at 10 μM” value in series [2] (10 μM, LN229-V6R cells, 1 day) is “inhibited completely”. The IC50 in series [2] (Homo sapiens, LN229-V6R cells) is less than 5 µM; in series [8] (LN229, hypoxia), 134 µM; in series [8] (LN229, normoxia), 82 µM; in series [9] (HFF-1, hypoxia), 93 µM; in series [9] (HFF-1, normoxia), 62 µM. The “effect on HIF-1α protein levels” value in [4] is given as “no effect on HIF-1α levels at all concentrations tested, except for a slight reduction at the highest concentration (100 μM)”. The “log P7.4” value in [1] came to 2.0. In addition, the “aqueous solubility (n = 3)” value in series [5] came to 1 ± 0.1 µM (≈ 0.372 µg/mL). Moreover, the “aqueous solubility relative to 1” value in [5] turned out to be 100 times. Further, in [5], the solubility is 0.3 µg/mL (≈ 0.805 µM). The “effect of low pH on aqueous solubility” value in [6] is recorded as 50-60 times. Moreover, the “half-life (hepatic metabolic stability)” value in series [7] was determined as 20 h. In addition, the half-life in series [7] is 780 to 1200 min.
`COc1cc(CN(C(C)C)S(=O)(=O)c2ccccn2)cc2c1OC(C)(C)C=C2` [Compound 6g]: the “concentration from which HIF-1α levels decreased dose-dependently” value in series [4] worked out at 12 µM. Also, in series [5], the “aqueous solubility relative to 1” value is reported as 9000 times. In addition, the “half-life (hepatic metabolic stability)” value in [7] stood at 15 h. Besides, the half-life in series [7] was 780 to 1200 min. Besides, the IC50 in [8] (LN229, hypoxia) is greater than 100 µM; in series [8] (LN229, normoxia), 69 µM; in series [9] (HFF-1, hypoxia), greater than 100 µM; in series [9] (HFF-1, normoxia), 55 µM.
On to `CC1(C)C=Cc2cc(CN(C3CC3)S(=O)(=O)c3ccccn3)ccc2O1` [Compound 6b, N-Cyclopropyl-N-[(2,2-dimethyl-2H-chromen-6-yl)methyl]pyridine-2-sulfonamide], for which, in series [2] (Homo sapiens, LN229-V6R cells), the IC50 was less than 5 µM. In addition, the “log P7.4” value in series [1] is listed as 3.0.
In the case of `CC1(C)C=Cc2cc(CN(CC3CC3)S(=O)(=O)c3ccccn3)ccc2O1` [Compound 6d, N-(Cyclopropylmethyl)-N-[(2,2-dimethyl-2H-chromen-6-yl)methyl]pyridine-2-sulfonamide], the “log P7.4” value in [1] is reported as 3.1. Further, in series [5], the “aqueous solubility (n = 3)” value is 0.2 ± 0.07 µM (≈ 0.0769 µg/mL), the “aqueous solubility relative to 1” value worked out at 20 times and the solubility is 0.1 µg/mL (≈ 0.26 µM). Besides, in series [7], the “half-life (hepatic metabolic stability)” value came out at 13 h and the half-life is 780 to 1200 min.
`CO[C@H]1/C=C\C=C(/C)C(=O)NC2=CC(=O)C(NCCN(C)C)=C(C[C@@H](C)C[C@H](OC)[C@H](O)[C@@H](C)/C=C(\C)[C@@H]1OC(N)=O)C2=O` [17-DMAG, reference compound]: in series [2], the “effect on luciferase activity in LN229-V6R cells” value is “inhibited”. In addition, in series [3], the “effect on luciferase activity in LN229-Lux cells” value is on record as “inhibited”.
`CC(C)CN(Cc1ccc2c(c1)C=CC(C)(C)O2)S(=O)(=O)c1ccncc1` [Compound 6i, N-[(2,2-Dimethyl-2H-chromen-6-yl)methyl]-N-(2-methylpropyl)pyridine-4-sulfonamide] had an IC50 in series [2] (Homo sapiens, LN229-V6R cells) of less than 5 µM. The “log P7.4” value in series [1] is on record as 3.6.
For `CC1(C)C=Cc2cc(CN(C3CCCC3)S(=O)(=O)c3ccccn3)ccc2O1` [Compound 6f, N-(Cyclopentyl)-N-[(2,2-dimethyl-2H-chromen-6-yl)methyl]pyridine-2-sulfonamide], the “log P7.4” value in series [1] stood at 3.8.
For `CC(C)CN(Cc1ccc2c(c1)C=CC(C)(C)O2)S(=O)(=O)c1ccccn1` [Compound 6c, N-[(2,2-Dimethyl-2H-chromen-6-yl)methyl]-N-(2-methylpropyl)pyridine-2-sulfonamide], in [1], the “log P7.4” value came out at 4.1.
